Data from PubChem BioAssay (NCI).
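These data come from cells grown in 96-well plates and exposed to compound for 48 hours at five concentrations. GI50 marks 50% less growth. The concentration for full growth arrest is given as TGI.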

Key:
Assay in all cases: growth of human tumour cells (NCI), 48 h
[1] = tested on: NCI/ADR-RES ovarian
[2] = tested on: OVCAR-3 ovarian
[3] = tested on: SK-MEL-2 melanoma
[4] = tested on: SF-295 CNS
[5] = tested on: HT29 colon
[6] = tested on: NCI-H23 lung
[7] = tested on: MDA-MB-435
[8] = tested on: 786-0 renal
[9] = tested on: MCF7 breast
[10] = tested on: KM12 colon
[11] = tested on: HOP-92 NSCLC
[12] = tested on: SR leukemia
[13] = tested on: IGROV1 ovarian
[14] = tested on: HL-60(TB) leukemia
[15] = tested on: SNB-19 CNS
[16] = tested on: OVCAR-8 ovarian
[17] = tested on: PC-3 prostate
[18] = tested on: RXF 393 renal
[19] = tested on: CAKI-1 renal
[20] = tested on: U251 CNS
[21] = tested on: HS 578T breast
[22] = tested on: SNB-75 CNS
[23] = tested on: BT-549 breast
[24] = tested on: NCI-H460 lung
[25] = tested on: SK-OV-3 ovarian
[26] = tested on: SF-268 CNS
[27] = tested on: A498 renal
[28] = tested on: CCRF-CEM leukemia
[29] = tested on: HCC-2998 colon
[30] = tested on: HCT-116 colon
[31] = tested on: HCT-15 colon
[32] = tested on: UACC-257 melanoma
[33] = tested on: NCI-H226 lung
[34] = tested on: DU-145 prostate
[35] = tested on: COLO 205 colon
[36] = tested on: OVCAR-5 ovarian
[37] = tested on: K-562 leukemia
[38] = tested on: MDA-MB-231 breast
[39] = tested on: LOX IMVI melanoma
[40] = tested on: T-47D breast
[41] = tested on: ACHN renal
[42] = tested on: UO-31 renal
[43] = tested on: SK-MEL-5 melanoma
[44] = tested on: SW-620 colon
[45] = tested on: OVCAR-4 ovarian
[46] = tested on: UACC-62 melanoma
[47] = tested on: SK-MEL-28 melanoma
[48] = tested on: NCI-H522 lung
[49] = tested on: M14 melanoma
[50] = tested on: MOLT-4 leukemia
[51] = tested on: RPMI-8226 leukemia
[52] = tested on: HOP-62 NSCLC
[53] = tested on: TK-10 renal
[54] = tested on: MALME-3M melanoma
[55] = tested on: MDA-MB-468 breast
[56] = tested on: SN12C renal
[57] = tested on: EKVX NSCLC
[58] = tested on: A549 NSCLC
[59] = tested on: SF-539 CNS

Which results are given for `O=C(COc1ccc(NC(=O)Nc2ccc(Cl)c(Cl)c2)cc1)N=Nc1c(O)[nH]c2ccc(Cl)cc12`?
GI50 [1]: > 100 µM; TGI [1]: > 100 µM; GI50 [2]: 1.97 µM; TGI [2]: 4.1 µM; GI50 [3]: 2.07 µM; TGI [3]: 4.83 µM; GI50 [4]: 1.81 µM; TGI [4]: 3.54 µM; GI50 [5]: 1.89 µM; TGI [5]: 3.58 µM; GI50 [6]: 2.08 µM; TGI [6]: 4.4 µM; GI50 [7]: 1.8 µM; TGI [7]: 3.68 µM; GI50 [8]: 1.78 µM; TGI [8]: 3.8 µM; GI50 [9]: 2.08 µM; TGI [9]: 5 µM; GI50 [10]: 1.98 µM; TGI [10]: 4.38 µM; GI50 [11]: 2.18 µM; TGI [11]: 4.87 µM; GI50 [12]: 2.18 µM; TGI [12]: 9.97 µM; GI50 [13]: 2.31 µM; TGI [13]: 5.73 µM; GI50 [14]: 2.05 µM; TGI [14]: 5.31 µM; GI50 [15]: 2.66 µM; TGI [15]: 7.49 µM; GI50 [16]: 2.3 µM; TGI [16]: 5.36 µM; GI50 [17]: 2.1 µM; TGI [17]: 5.07 µM; GI50 [18]: 1.62 µM; TGI [18]: 3.13 µM; GI50 [19]: 2.21 µM; TGI [19]: 4.89 µM; GI50 [20]: 1.9 µM; TGI [20]: 3.79 µM; GI50 [21]: 2.33 µM; TGI [21]: 6.36 µM; GI50 [22]: 1.58 µM; TGI [22]: 3.49 µM; GI50 [23]: 1.62 µM; TGI [23]: 3.3 µM; GI50 [24]: 1.92 µM; TGI [24]: 4.07 µM; GI50 [25]: 2.19 µM; TGI [25]: 4.98 µM; GI50 [26]: 2.23 µM; TGI [26]: 5.18 µM; GI50 [27]: 2.06 µM; TGI [27]: 5.28 µM; GI50 [28]: 2.27 µM; TGI [28]: 5.54 µM; GI50 [29]: 2.58 µM; TGI [29]: 7.1 µM; GI50 [30]: 1.85 µM; TGI [30]: 3.47 µM; GI50 [31]: 7.94 µM; TGI [31]: > 100 µM; GI50 [32]: 2 µM; TGI [32]: 4.15 µM; GI50 [33]: 2.06 µM; TGI [33]: 4.59 µM; GI50 [34]: 2.96 µM; TGI [34]: 8.81 µM; GI50 [35]: 1.76 µM; TGI [35]: 3.35 µM; GI50 [36]: 2.11 µM; TGI [36]: 5.39 µM; GI50 [37]: 2.77 µM; TGI [37]: 7.1 µM; GI50 [38]: 1.93 µM; TGI [38]: 3.57 µM; GI50 [39]: 1.73 µM; TGI [39]: 3.23 µM; GI50 [40]: 2.01 µM; TGI [40]: 4.76 µM; GI50 [41]: 3.23 µM; TGI [41]: 11.4 µM; GI50 [42]: 22.5 µM; TGI [42]: > 100 µM; GI50 [43]: 1.72 µM; TGI [43]: 3.18 µM; GI50 [44]: 1.79 µM; TGI [44]: 3.59 µM; GI50 [45]: 2.26 µM; TGI [45]: 6.15 µM; GI50 [46]: 1.98 µM; TGI [46]: 4.45 µM; GI50 [47]: 1.89 µM; TGI [47]: 3.86 µM; GI50 [48]: 1.74 µM; TGI [48]: 3.57 µM; GI50 [49]: 1.81 µM; TGI [49]: 3.71 µM; GI50 [50]: 1.84 µM; TGI [50]: 4.5 µM; GI50 [51]: 2.44 µM; TGI [51]: 6.2 µM; GI50 [52]: 1.78 µM; TGI [52]: 3.65 µM; GI50 [53]: 2.86 µM; TGI [53]: 9.89 µM; GI50 [54]: 1.68 µM; TGI [54]: 3.1 µM; GI50 [55]: 1.84 µM; TGI [55]: 3.54 µM; GI50 [56]: 1.93 µM; TGI [56]: 3.67 µM; GI50 [57]: 2.65 µM; TGI [57]: 9.28 µM; GI50 [58]: 2.61 µM; TGI [58]: 7.01 µM; GI50 [59]: 1.78 µM; TGI [59]: 3.4 µM
